The target in test [1] is T1, Human MGAT-2 (Homo sapiens (Human), UniProt Q3SYC2). Kind of test: MGAT SPA Assay.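 Further: inhibition scaled between DMSO vehicle as full MGAT2 activity and membranes of uninfected Sf9 cells as blank, IC50 fitted by logistic curve.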 The settings on record: membranes from Sf9 cells expressing recombinant human MGAT2; 2-monooleoylglycerol and [3H]-oleoyl-CoA. It counts as biochemical.
Test [2] addresses T1, Human MGAT-2. Kind of test: MGAT LCMS Assay (human MGAT-2).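 Further: diolein product quantified by LC/MS with positive APCI, expressed as peak area ratio versus an internal standard, and this ratio used to derive IC50.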 It counts as biochemical. The settings on record: human MGAT-2 membranes expressed in Sf9 cells; 2-oleoylglycerol and oleoyl-Coenzyme A; read-out: h-MGAT2 IC50 (nM) LCMS Assay.

By IC50 is commonly meant the concentration that inhibits the measured activity by half.

Molecules are shown by their SMILES.

T1 sequence (Q3SYC2 whole entry): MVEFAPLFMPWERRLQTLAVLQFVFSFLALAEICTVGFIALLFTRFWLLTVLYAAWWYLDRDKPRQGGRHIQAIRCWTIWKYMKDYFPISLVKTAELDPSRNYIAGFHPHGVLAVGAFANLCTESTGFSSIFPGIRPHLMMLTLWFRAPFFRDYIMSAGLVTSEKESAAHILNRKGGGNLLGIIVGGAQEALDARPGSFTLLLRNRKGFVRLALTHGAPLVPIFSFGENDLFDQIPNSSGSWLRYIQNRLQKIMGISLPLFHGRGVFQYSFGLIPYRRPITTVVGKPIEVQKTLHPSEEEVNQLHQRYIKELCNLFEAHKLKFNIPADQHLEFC

For `Cc1ccc(C2=C(NC(=O)c3cc(F)ccc3Cl)C(=O)NC(c3ccc(OCCCC(F)(F)F)cc3)(C(F)(F)F)C2)cc1` (stereo not shown) [Example 171], the 50% inhibitory concentration (IC50) in test [1] was 724 nM; in test [2] it was 57 nM.
The matching figures for `CCCCOc1ccc(C2(C(F)(F)F)CC(c3ccc(OC)cc3)=C(NC(=O)c3ccno3)C(=O)N2)cc1` (stereo not shown) [Example 172]: 16 nM and 3 nM.
Consider `CCCCCCCCCCCCCCCCNC(=O)C1(C)CC(c2ccc(C)cc2)=C(C(=O)Nc2ccc(OC)cc2)C(=O)N1` (stereo not shown) [Example 173], for which the 50% inhibitory concentration (IC50) in test [1] was 43 nM; in test [2] it was 63 nM.
On to `CCCCCCCCNC(=O)C1(C)CC(c2ccc(C)cc2)=C(C(=O)Nc2ccc(OC)cc2)C(=O)N1` (stereo not shown) [Example 174], for which the half-inhibitory concentration (IC50) in test [1] turned out to be 237 nM; in test [2], 60 nM.
`COc1ccc(NC(=O)C2=C(c3ccc(C)cc3)CC(C)(C(=O)NCCCCc3ccccc3)NC2=O)cc1` (stereo not shown) [Example 178]: the half-inhibitory concentration (IC50) in test [1] was determined as 47 nM; in test [2] it was 78 nM.
For the molecule `Cc1ccc(C2=C(NC(=O)c3cc(Br)no3)C(=O)NC(c3ccc(OCCCC(F)(F)F)cc3)(C(F)(F)F)C2)cc1` (stereo not shown) [Example 179], the figures for the concentration for half-maximal inhibition (IC50) in test [1] and in test [2] were 24 nM and 2 nM, respectively.
As to `Cc1ccc(C2=C(NC(=O)c3cc(OCc4ccccc4)no3)C(=O)NC(c3ccc(OCCCC(F)(F)F)cc3)(C(F)(F)F)C2)cc1` (stereo not shown) [Example 180], the IC50 in test [1] was 36 nM; in test [2], 30 nM.
Turning to `COc1cnc(NC(=O)C2=C(c3ccc(C)cc3)CC(c3ccc(OCCCCC(F)(F)F)cc3)(C(F)(F)F)NC2=O)cn1` (stereo not shown) [Example 273], the IC50 in test [1] turned out to be 21 nM; in test [2], 10 nM.
